Data taken from patent US20230416232A1, “PYRIMIDINE COMPOUNDS, COMPOSITIONS, AND MEDICINAL APPLICATIONS THEREOF” (Blueprint Medicines Corporation, priority 2020, published 2023).
pIC50: −log10 of the molar value. Structures can show the parent of a compound that is named as a salt.

How the values were obtained:
Format in all cases: cell-based
[1] = target: EGFR(D770_N771insSVD) expressing Ba/F3 stable cell line (Homo sapiens, UniProt P00533, DUP768-770, cells depend on it); assay: Cellular proliferation (Alamar Blue) assay, EGFR(D770_N771insSVD) Ba/F3; conditions: 72 hr, read-out: D770 IC50
Sequence of EGFR(D770_N771insSVD) expressing Ba/F3 stable cell line (P00533 with tags, fused parts or gaps DUP768-770): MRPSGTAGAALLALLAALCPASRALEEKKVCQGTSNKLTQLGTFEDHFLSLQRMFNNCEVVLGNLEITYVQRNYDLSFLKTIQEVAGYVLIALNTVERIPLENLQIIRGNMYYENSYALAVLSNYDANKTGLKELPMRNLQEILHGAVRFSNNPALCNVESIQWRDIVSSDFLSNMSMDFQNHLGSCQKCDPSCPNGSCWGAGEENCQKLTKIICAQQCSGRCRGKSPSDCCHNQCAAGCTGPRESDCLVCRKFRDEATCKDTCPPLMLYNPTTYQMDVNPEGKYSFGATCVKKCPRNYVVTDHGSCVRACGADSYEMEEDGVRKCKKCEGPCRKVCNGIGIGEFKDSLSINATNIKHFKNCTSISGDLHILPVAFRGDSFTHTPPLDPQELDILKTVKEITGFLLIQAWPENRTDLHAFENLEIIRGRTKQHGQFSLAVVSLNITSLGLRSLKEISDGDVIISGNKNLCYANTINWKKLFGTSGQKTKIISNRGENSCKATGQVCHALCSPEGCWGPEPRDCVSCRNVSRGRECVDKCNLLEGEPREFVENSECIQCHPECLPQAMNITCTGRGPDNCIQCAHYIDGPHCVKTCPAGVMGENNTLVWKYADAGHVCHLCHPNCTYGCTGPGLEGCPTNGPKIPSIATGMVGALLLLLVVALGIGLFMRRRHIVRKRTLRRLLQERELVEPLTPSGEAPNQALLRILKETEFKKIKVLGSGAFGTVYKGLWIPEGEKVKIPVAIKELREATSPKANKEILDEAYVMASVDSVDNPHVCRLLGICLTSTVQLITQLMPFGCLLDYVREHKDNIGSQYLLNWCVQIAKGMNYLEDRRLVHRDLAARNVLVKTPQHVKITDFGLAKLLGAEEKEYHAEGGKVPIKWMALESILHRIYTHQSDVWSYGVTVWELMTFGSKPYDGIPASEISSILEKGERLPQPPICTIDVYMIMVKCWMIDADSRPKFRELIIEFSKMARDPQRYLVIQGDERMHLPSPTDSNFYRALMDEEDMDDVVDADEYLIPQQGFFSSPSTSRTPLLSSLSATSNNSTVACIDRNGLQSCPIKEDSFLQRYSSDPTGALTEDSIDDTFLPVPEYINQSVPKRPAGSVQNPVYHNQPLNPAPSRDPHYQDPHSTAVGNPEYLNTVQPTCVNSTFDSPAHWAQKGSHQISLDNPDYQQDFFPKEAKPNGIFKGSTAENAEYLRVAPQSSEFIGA
Summary of the method: (§1)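 Compound treatment lasted 72 h at 37 °C across a final 10-0.0005 μM range in 3-fold steps; cell growth was measured with Alamar Blue (3 h). Ba/F3 seeded at 15,000 and A431 at 5000 cells/well.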

[2] = target: EGFR (A767_dupASV) expressing Ba/F3 stable cell line (Homo sapiens, UniProt P00533, DUP767-769, cells depend on it); assay: Cellular proliferation (Alamar Blue) assay, EGFR (A767_dupASV) Ba/F3; conditions: 72 hr, read-out: A767 IC50
Sequence of EGFR (A767_dupASV) expressing Ba/F3 stable cell line (P00533 with tags, fused parts or gaps DUP767-769): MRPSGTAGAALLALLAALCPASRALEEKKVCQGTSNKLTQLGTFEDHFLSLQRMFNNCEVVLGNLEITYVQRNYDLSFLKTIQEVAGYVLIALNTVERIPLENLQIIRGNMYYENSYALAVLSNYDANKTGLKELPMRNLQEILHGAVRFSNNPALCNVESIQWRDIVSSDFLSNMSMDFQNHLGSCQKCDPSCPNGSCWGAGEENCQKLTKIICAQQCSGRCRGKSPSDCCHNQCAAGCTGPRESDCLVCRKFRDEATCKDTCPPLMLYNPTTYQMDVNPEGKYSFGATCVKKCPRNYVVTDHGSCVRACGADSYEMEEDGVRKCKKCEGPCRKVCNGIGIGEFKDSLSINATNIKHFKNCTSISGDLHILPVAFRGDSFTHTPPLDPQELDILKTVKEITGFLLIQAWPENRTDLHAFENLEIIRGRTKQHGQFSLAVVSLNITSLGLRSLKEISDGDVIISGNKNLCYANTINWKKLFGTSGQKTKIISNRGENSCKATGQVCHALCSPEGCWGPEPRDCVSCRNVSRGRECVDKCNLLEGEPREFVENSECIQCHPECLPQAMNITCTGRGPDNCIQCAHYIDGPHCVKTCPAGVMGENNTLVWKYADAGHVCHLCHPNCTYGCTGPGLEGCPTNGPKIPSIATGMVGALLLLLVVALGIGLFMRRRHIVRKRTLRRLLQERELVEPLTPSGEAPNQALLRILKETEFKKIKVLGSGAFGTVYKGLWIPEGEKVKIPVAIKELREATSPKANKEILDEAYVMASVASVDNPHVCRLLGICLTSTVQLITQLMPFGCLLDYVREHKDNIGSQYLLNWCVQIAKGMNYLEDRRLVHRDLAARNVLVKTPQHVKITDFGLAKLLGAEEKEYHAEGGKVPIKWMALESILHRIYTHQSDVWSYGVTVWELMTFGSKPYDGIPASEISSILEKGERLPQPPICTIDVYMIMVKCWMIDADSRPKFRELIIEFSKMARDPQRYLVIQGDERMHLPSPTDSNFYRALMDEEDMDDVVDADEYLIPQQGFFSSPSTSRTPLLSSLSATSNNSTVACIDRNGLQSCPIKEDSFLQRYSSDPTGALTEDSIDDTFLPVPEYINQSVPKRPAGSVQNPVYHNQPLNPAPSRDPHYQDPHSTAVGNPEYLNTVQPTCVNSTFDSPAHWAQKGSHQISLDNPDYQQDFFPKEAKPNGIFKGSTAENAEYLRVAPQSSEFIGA
Summary of the method: as §1

A431 cells = assay: Cellular proliferation (Alamar Blue) assay, A431 cells; conditions: Homo sapiens, A-431, 72 h, A431 cells; 72 hr; Alamar Blue; read-out: A431 IC50
Summary of the method: as §1

[3] = target: EGFR (H773insNPH) expressing Ba/F3 stable cell line (Homo sapiens, UniProt P00533, DUP771-773, cells depend on it); assay: Cellular proliferation (Alamar Blue) assay, EGFR (H773insNPH) Ba/F3; conditions: 72 hr, read-out: NPH IC50
Sequence of EGFR (H773insNPH) expressing Ba/F3 stable cell line (P00533 with tags, fused parts or gaps DUP771-773): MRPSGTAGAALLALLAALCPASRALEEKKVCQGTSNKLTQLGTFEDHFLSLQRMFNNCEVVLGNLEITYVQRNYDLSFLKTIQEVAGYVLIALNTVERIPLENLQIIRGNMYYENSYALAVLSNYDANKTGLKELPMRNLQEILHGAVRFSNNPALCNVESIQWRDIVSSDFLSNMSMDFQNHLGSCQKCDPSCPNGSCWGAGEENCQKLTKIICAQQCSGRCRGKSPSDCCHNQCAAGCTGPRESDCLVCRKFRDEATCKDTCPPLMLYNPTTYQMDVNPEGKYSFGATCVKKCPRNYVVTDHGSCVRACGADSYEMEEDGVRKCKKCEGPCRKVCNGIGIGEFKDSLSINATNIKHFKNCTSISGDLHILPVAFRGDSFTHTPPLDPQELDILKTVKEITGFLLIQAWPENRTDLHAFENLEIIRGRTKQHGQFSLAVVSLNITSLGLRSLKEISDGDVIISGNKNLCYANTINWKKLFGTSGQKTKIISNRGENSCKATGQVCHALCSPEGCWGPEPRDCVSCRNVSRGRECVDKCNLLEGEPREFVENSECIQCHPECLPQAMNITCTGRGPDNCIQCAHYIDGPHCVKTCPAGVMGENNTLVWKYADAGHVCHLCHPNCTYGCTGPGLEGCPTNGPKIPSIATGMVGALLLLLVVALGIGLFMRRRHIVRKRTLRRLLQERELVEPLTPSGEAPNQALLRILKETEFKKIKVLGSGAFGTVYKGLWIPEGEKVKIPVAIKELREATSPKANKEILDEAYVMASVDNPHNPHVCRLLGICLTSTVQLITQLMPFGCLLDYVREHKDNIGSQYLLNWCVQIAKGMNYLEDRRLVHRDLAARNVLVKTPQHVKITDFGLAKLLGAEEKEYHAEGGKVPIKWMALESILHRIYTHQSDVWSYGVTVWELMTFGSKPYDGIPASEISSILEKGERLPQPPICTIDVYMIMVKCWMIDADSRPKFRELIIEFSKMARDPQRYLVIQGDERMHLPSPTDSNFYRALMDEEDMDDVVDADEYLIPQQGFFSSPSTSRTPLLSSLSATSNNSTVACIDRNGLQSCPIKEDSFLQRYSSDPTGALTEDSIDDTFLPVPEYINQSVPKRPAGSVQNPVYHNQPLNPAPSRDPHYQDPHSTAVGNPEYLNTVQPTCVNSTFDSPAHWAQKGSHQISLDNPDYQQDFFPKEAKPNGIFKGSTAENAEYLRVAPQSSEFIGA
Method: Cell line details: • 1. EGFR(D770_N771insSVD) expressing Ba/F3 stable cell line • 2. EGFR (A767_dupASV) expressing Ba/F3 stable cell line • 3. A431 cells • 4. EGFR (H773insNPH) expressing Ba/F3 stable cell line • 5. HER2 (A775_G776insYVMA) expressing Ba/F3 stable cell line
• 1. Seed cells at 5000 for A431 and 15,000 cells for Ba/F3 in 100 μL/well in complete media (for A431: DMEM with 10% FBS and for Ba/F3 cells: RPMI with 10% FBS) in 96-well tissue culture plate. Leave outer wells without cells for background measurements. Incubate at 37 degree Celsius in 5% CO2 humidified incubator for 16-18 hours. • 2. Add 0.025 ml of 5X concentration compound dilution or DMSO control. Final compound concentration range is 10-0.0005 μM prepared in 3-fold serial dilutions. Incubate for 72 hr at 37 degree Celsius in 5% CO2 humidified incubator. • 3. Add 0.0125 ml Alamar Blue™ reagent to each well with multi-channel pipette and tap gently on each side of the plate to mix. Incubate for 3 hours at 37 degree Celsius in 5% CO2 humidified incubator. • 4. […] Data analysis was performed using XLfit 5.5.0.5.

[4] = target: HER2 (A775_G776insYVMA) expressing Ba/F3 stable cell line (Homo sapiens, UniProt P04626, DUP772-775, cells depend on it); assay: Cellular proliferation (Alamar Blue) assay, HER2 (A775_G776insYVMA) Ba/F3; conditions: HER2 (A775_G776insYVMA) Ba/F3 cells; 72 hr; Alamar Blue; read-out: YVMA IC50
Sequence of HER2 (A775_G776insYVMA) expressing Ba/F3 stable cell line (P04626 with tags, fused parts or gaps DUP772-775): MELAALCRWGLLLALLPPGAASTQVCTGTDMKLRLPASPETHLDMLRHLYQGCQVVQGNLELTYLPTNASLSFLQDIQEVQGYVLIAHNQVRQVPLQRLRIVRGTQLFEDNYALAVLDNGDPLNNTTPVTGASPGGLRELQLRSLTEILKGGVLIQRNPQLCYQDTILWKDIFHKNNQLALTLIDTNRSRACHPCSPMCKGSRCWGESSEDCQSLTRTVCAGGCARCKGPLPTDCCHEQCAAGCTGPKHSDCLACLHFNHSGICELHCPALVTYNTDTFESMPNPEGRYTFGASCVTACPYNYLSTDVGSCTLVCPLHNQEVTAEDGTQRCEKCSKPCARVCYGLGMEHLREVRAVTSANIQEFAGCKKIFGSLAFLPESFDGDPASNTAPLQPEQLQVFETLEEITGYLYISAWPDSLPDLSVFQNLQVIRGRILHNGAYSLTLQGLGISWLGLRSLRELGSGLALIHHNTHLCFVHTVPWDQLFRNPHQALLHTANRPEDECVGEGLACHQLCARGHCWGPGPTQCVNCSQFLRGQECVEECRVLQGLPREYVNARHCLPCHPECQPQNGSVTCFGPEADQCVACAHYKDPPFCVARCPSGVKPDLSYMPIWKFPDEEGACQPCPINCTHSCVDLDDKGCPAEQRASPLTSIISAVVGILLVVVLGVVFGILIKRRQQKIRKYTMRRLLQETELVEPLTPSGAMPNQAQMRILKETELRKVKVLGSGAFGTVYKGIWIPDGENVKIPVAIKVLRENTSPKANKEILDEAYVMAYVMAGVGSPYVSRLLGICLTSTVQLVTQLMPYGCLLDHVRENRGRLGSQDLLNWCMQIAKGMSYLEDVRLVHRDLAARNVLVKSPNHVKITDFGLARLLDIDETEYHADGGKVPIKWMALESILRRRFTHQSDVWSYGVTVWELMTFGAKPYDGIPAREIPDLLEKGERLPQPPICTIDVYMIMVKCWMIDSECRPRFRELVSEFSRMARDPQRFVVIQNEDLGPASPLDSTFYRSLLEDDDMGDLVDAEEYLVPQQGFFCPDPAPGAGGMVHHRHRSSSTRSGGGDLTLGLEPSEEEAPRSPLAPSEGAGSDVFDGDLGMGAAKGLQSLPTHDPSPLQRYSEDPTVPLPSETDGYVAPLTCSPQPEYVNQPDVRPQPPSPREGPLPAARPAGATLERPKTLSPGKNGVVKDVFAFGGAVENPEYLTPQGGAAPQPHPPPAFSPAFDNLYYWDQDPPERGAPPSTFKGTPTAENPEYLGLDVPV
Summary of the method: as §1

Structure (SMILES)	GI50 [1] [nM]	GI50 [2] [nM]	pIC50 (A431 cells)	GI50 [3] [nM]	GI50 [4] [nM]
C=CC(=O)Nc1cccc(Nc2nc(Nc3cnn(C)c3)ncc2-c2cc(F)cc(Cl)c2)c1 [Compound 66, N-(3-((5-(3-chloro-5-fluorophenyl)-2-((1-methyl-1H-pyrazol-4-yl)amino)pyrimidin-4-yl)amino)phenyl)acrylamide]	15	26	7.26	14	47
C=CC(=O)Nc1ccc(F)c(Nc2nc(Nc3cnn(C)c3)ncc2-c2ccc(F)c(F)c2)c1 [Compound 5, N-(3-((5-(3,4-difluorophenyl)-2-((1-methyl-1H-pyrazol-4-yl)amino)pyrimidin-4-yl)amino)-4-fluorophenyl)acrylamide]	30	39	6.70	79	208
C=CC(=O)Nc1ccc(F)c(Nc2nc(Nc3cnn(C)c3)ncc2-c2ccc(C(F)(F)F)c(F)c2)c1 [Compound 35, N-(4-fluoro-3-((5-(3-fluoro-4-(trifluoromethyl)phenyl)-2-((1-methyl-1H-pyrazol-4-yl)amino)pyrimidin-4-yl)amino)phenyl)acrylamide]	35	99	7.35	84	99
C=CC(=O)Nc1ccc(F)c(Nc2nc(Nc3cnn(C4COC4)c3)ncc2-c2ccc(F)c(Cl)c2)c1 [Compound 53, N-(3-((5-(3-chloro-4-fluorophenyl)-2-((1-(oxetan-3-yl)-1H-pyrazol-4-yl)amino)pyrimidin-4-yl)amino)-4-fluorophenyl)acrylamide]	104	119	5.91	153	211
C=CC(=O)Nc1cccc(Nc2nc(Nc3cnn(C)c3)ncc2-c2cc(F)cc(C(F)F)c2)c1 [Compound 43, N-(3-((5-(3-(difluoromethyl)-5-fluorophenyl)-2-((1-methyl-1H-pyrazol-4-yl)amino)pyrimidin-4-yl)amino)phenyl)acrylamide]	35	41	6.15	24	84
C=CC(=O)Nc1ccc(F)c(Nc2nc(Nc3cnn(C)c3)ncc2-c2ccc(N3CCCC3)c(F)c2)c1 [Compound 77, N-(4-fluoro-3-((5-(3-fluoro-4-(pyrrolidin-1-yl)phenyl)-2-((1-methyl-1H-pyrazol-4-yl)amino)pyrimidin-4-yl)amino)phenyl)acrylamide]	340	113	6.53	353	584
C=CC(=O)Nc1ccc(F)c(Nc2nc(Nc3cnn(C)c3)ncc2-c2ccc(N3CCOCC3)c(F)c2)c1 [Compound 76, N-[4-fluoro-3-({5-[3-fluoro-4-(morpholin-4-yl)phenyl]-2-[(1-methyl-1H-pyrazol-4-yl)amino]pyrimidin-4-yl}amino)phenyl]prop-2-enamide]	220	72	5.90	236	240
C=CC(=O)Nc1ccc(F)c(Nc2nc(Nc3cnn(CCN(C)C)c3)ncc2-c2ccc(Br)c(Cl)c2)c1 [Compound 89, N-(3-((5-(4-bromo-3-chlorophenyl)-2-((1-(2-(dimethylamino)ethyl)-1H-pyrazol-4-yl)amino)pyrimidin-4-yl)amino)-4-fluorophenyl)acrylamide]	102	108	6.46	56	123
C=CC(=O)Nc1ccc(F)c(Nc2nc(Nc3cnn(CCO)c3)ncc2-c2ccc(F)c(Cl)c2)c1 [Compound 62, N-(3-((5-(3-chloro-4-fluorophenyl)-2-((1-(2-hydroxyethyl)-1H-pyrazol-4-yl)amino)pyrimidin-4-yl)amino)-4-fluorophenyl)acrylamide]	75	80	6.00	91	103
C=CC(=O)Nc1ccc(F)c(Nc2nc(Nc3cnn(C)c3)ncc2-c2ccc(Br)c(Cl)c2)c1 [Compound 88, N-(3-((5-(4-bromo-3-chlorophenyl)-2-((1-methyl-1H-pyrazol-4-yl)amino)pyrimidin-4-yl)amino)-4-fluorophenyl)acrylamide]	66	87	6.55	57	118
C=CC(=O)Nc1ccc(F)c(Nc2nc(Nc3cnn(CCO)c3)ncc2-c2ccc(Br)c(F)c2)c1 [Compound 96, N-(3-((5-(4-bromo-3-fluorophenyl)-2-((1-(2-hydroxyethyl)-1H-pyrazol-4-yl)amino)pyrimidin-4-yl)amino)-4-fluorophenyl)acrylamide]	25	28	7.43	96	56
C=CC(=O)Nc1ccc(F)c(Nc2nc(Nc3cnn(C)c3)ncc2-c2ccc(OC)cc2F)c1 [Compound 7, N-(4-fluoro-3-((5-(2-fluoro-4-methoxyphenyl)-2-((1-methyl-1H-pyrazol-4-yl)amino)pyrimidin-4-yl)amino)phenyl)acrylamide]	94	97	6.64	97	377
C=CC(=O)Nc1ccc(F)c(Nc2nc(Nc3cnn(C)c3)ncc2-c2cnc(F)c(C(F)(F)F)c2)c1 [Compound 47, N-(4-fluoro-3-((5-(6-fluoro-5-(trifluoromethyl)pyridin-3-yl)-2-((1-methyl-1H-pyrazol-4-yl)amino)pyrimidin-4-yl)amino)phenyl)acrylamide]	21	34	7.34	20	25
C=CC(=O)Nc1ccc(F)c(Nc2nc(Nc3cnn(C)c3)ncc2-c2ccc(OC(F)F)c(F)c2)c1 [Compound 16, N-(3-((5-(4-(difluoromethoxy)-3-fluorophenyl)-2-((1-methyl-1H-pyrazol-4-yl)amino)pyrimidin-4-yl)amino)-4-fluorophenyl)acrylamide]	10	9	6.34	24	43
C=CC(=O)Nc1ccc(F)c(Nc2nc(Nc3cnn(C)c3)ncc2-c2ccc(C)c(F)c2)c1 [Compound 13, N-(4-fluoro-3-((5-(3-fluoro-4-methylphenyl)-2-((1-methyl-1H-pyrazol-4-yl)amino)pyrimidin-4-yl)amino)phenyl)acrylamide]	28	42	6.83	79	114
C=CC(=O)Nc1ccc(F)c(Nc2nc(Nc3cnn(C)c3)ncc2-c2ccc(C(F)F)c(F)c2)c1 [Compound 37, N-(3-((5-(4-(difluoromethyl)-3-fluorophenyl)-2-((1-methyl-1H-pyrazol-4-yl)amino)pyrimidin-4-yl)amino)-4-fluorophenyl)acrylamide]	30	34	7.29	51	93
C=CC(=O)Nc1ccc(F)c(Nc2nc(Nc3cnn(C)c3)ncc2-c2cnc(OC)c(Cl)c2)c1 [Compound 31, N-(3-((5-(5-chloro-6-methoxypyridin-3-yl)-2-((1-methyl-1H-pyrazol-4-yl)amino)pyrimidin-4-yl)amino)-4-fluorophenyl)acrylamide trifluoroacetate]	50	34	6.24	92	94
